“And” between values parts separate entries of the source, which are not always exact repeats. Identical values can stand only once. Like-named read-outs stand apart in the source and are kept apart here. Where a SMILES comes first, the peptide text is derived from it. Bridges are numbered along the chain shown (N, C = ends). [ ]: non-standard residue; d: D form. The star is where a group is joined. X1 = O=C(c1ccc(Cl)cc1Cl)*; Dab = NCC[C@H](N)C(=O)O; Abu = CC[C@H](N)C(=O)O; Dap = NC[C@H](N)C(=O)O
How the values were obtained:
[1] = Procedure: During the MAD phase of the study, repeat dosing of 100, 150, and 200 mg of BRII-693 was evaluated in sequential cohorts (cohorts 8–10) composed of eight participants each (six active; two placebo). Participants first received a single dose of BRII-693 or placebo as a 1-hour IV infusion on day 1; and then 48 hours later on day 3 through day 9, participants received BRII-693 or placebo every 6 hours (q6h) for 7 days, with the last dose in the morning on day 9. Participants were discharged on day 11. In the remaining two MAD cohorts (cohorts 11 and 12), repeat dosing of 150 mg of BRII-693 q6h for 14 days was evaluated in non-Chinese and Chinese (first and second generation) participants. Each cohort comprises 12 participants (10 active and 2 placebo). The last dose was in the morning on day 14, and participants were discharged on day 17.
For the 7-day MAD cohorts 8–10, blood samples were collected (i) on day 1 before dosing and at 0.5, 1, 1.25, 1.5, 2, 4, 6, 8, 12, 24, 36, and 48 hours following the start of dosing infusion; (ii) on day 3 prior to the morning dose and at 0.5, 1, 1.25, 1.5, 2, 4, and 6 hours after the start of the first dosing infusion; (iii) on day 9 before dosing and at 0.5, 1, 1.25, 1.5, 2, 4, 6, 8, 12, 24, 36, and 48 hours following the start of the last dosing infusion in the morning. Urine samples were collected before dosing and at the time intervals of 0–4, 4–8, 8–12, 12–24, 24–36, and 36–48 hours after the start of dosing infusion on days 1 and 9.
For the 14-day MAD cohorts 11 and 12, blood samples were collected (i) on day 1 prior to and at 0.5, 1, 1.25, 1.5, 2, 4, and 6 hours after the start of the first dosing infusion and (ii) on day 14 before dosing and at 0.5, 1, 1.25, 1.5, 2, 4, 6, 8, 12, 24, 36, 48, 60, and 72 hours following the start of the last dosing infusion in the morning. Urine samples were collected before dosing and at the time intervals of 0–4, 4–8, 8–12, 12–24, 24–36, 36–48, and 48–72 hours after the start of dosing infusion on Day 14.
All blood samples were collected into EDTA-containing vials, immediately placed on ice, and centrifuged at 3,000× g for approximately 10 minutes at 4°C. Supernatant plasma was transferred to two pre-chilled cryopreservation vials (at least 1.0 mL per vial) and stored at −80°C until shipped to the analytical laboratory. Urine samples collected for each time interval were refrigerated, aliquoted, and stored at −80°C until shipped to the analytical laboratory. Plasma and urine samples were analyzed for BRII-693 concentrations using validated high-performance liquid chromatography with detection by mass spectrometry method (BioAgilytix, San Diego, CA). The assay range was 50.0–50,000 ng/mL in both plasma and urine.
Area under the concentration-time curve (AUC) from time zero to the time of the last quantifiable concentration (AUC0–last), AUC from time zero to infinity (AUC0–inf), AUC within a dosing interval of 6 hours (AUC0–6h), maximum observed concentration (Cmax), time to reach maximum concentration (Tmax), apparent terminal half-life (t1/2), total clearance (CL), volume of distribution during terminal phase (Vz), and accumulation ratio based on AUC (ARAUC) were determined for BRII-693 in plasma. Urine parameters included amount and percentage of dose recovered in urine as unchanged drug over each collection interval and cumulatively and renal clearance (CLR). PK parameters were determined using noncompartmental methods in Phoenix WinNonlin (Certara, Version 8.3).

[2] = Renal function: serum creatinine, RIFLE Risk criteria; format: in vivo, human (healthy adult participants); conditions: for Serum creatinine level: cohort 12, 150 mg q6h × 14 days
Source text: Safety assessments included repeated measures of laboratory testing, vital signs, ECGs, physical examinations, and adverse event (AE) monitoring and reporting conducted before, during, and after study drug administration. A >1.5× increase from baseline in creatinine was characterized as meeting the (RIFLE) “Risk” level (or Class R) criteria ([10]). Participants were confined at the clinical research unit for the duration of their study participation. For the SAD cohorts, confinement was from the day before dosing through day 3 (at least 48 hours after dosing). For the MAD cohorts, confinement was from the day before dosing through day 11 for cohorts 8 to 10 and through day 17 for cohorts 11 and 12.

CC[C@@H]1NC(=O)[C@@H](CC(C)C)NC(=O)[C@H](CCN)NC(=O)[C@@H](NC(=O)[C@H](CN)NC(=O)[C@@H](NC(=O)[C@H](CCN)NC(=O)c2ccc(Cl)cc2Cl)[C@@H](C)O)CCNC(=O)[C@H]([C@@H](C)O)NC(=O)[C@H](CCN)NC(=O)[C@H](CCN)NC1=O [BRII-693] (X1-[Dab]T[Dap][Dab][Dab][dL][Abu][Dab][Dab]T; lactam 4-C; N-terminus assumed)
CLR ([1]; Last q6h dose (day 9), 7-day MAD 100 mg q6h × 7, renal clearance, n = 6, arithmetic mean ± SD): 1.40 ± 0.60 L/h
fe0–48h ([1]; Last q6h dose (day 9), 7-day MAD 100 mg q6h × 7, urinary recovery over 48 h, n = 6, arithmetic mean ± SD): 66.5 ± 18.0%
CLR ([1]; Last q6h dose (day 9), 7-day MAD 150 mg q6h × 7, renal clearance, n = 5, arithmetic mean ± SD): 1.60 ± 0.60 L/h
fe0–48h ([1]; Last q6h dose (day 9), 7-day MAD 150 mg q6h × 7, urinary recovery over 48 h, n = 5, arithmetic mean ± SD): 57.2 ± 19.2%
CLR ([1]; Last q6h dose (day 9), 7-day MAD 200 mg q6h × 7, renal clearance, n = 5, arithmetic mean ± SD): 1.41 ± 0.23 L/h
fe0–48h ([1]; Last q6h dose (day 9), 7-day MAD 200 mg q6h × 7, urinary recovery over 48 h, n = 5, arithmetic mean ± SD): 74.3 ± 30.3%
CLR ([1]; Last q6h dose (day 14), 14-day MAD 150 mg q6h × 14, Chinese, renal clearance, n = 6, arithmetic mean ± SD): 1.67 ± 0.43 L/h
fe0–48h ([1]; Last q6h dose (day 14), 14-day MAD 150 mg q6h × 14, Chinese, urinary recovery over 48 h, n = 6, arithmetic mean ± SD): 70.9 ± 22.0%
CLR ([1]; Last q6h dose (day 14), 14-day MAD 150 mg q6h × 14, non-Chinese, renal clearance, n = 10, arithmetic mean ± SD): 1.91 ± 0.79 L/h
fe0–48h ([1]; Last q6h dose (day 14), 14-day MAD 150 mg q6h × 14, non-Chinese, urinary recovery over 48 h, n = 10, arithmetic mean ± SD): 74.1 ± 25.6%
Urinary recovery compared with polymyxin B ([1]; comparison with literature polymyxin B data (ref 11)): higher urinary recovery than polymyxin B
Participants with creatinine elevation (>1.5× increase from baseline, RIFLE risk class) ([2]; 150 mg q6h × 14 days): 1 of 20
Serum creatinine level after completion of therapy ([2]; 200 mg q6h × 7 days, first participant, day 11): 1.17 mg/dL
Peak serum creatinine level ([2]; 200 mg q6h × 7 days, one participant, day 10): 1.54 mg/dL
Serum creatinine level after completion of therapy ([2]; 200 mg q6h × 7 days, other participant, day 11): 1.10 mg/dL
Participants with creatinine elevation (>1.5× increase from baseline, RIFLE risk class) ([2]; 200 mg q6h × 7 days, reversible): Two of six and 2 of 6
Peak serum creatinine level ([2]; 200 mg q6h × 7 days, the other participant, day 9): 1.64 mg/dL
Serum creatinine level ([2]; one participant, day 9): 1.74 mg/dL
Serum creatinine level ([2]; one participant, day 11): 1.72 mg/dL
Serum creatinine level ([2]; one participant, day 13): 2.07 mg/dL
Serum creatinine level ([2]; same participant, unscheduled visit after day 13): 1.39 mg/dL

From article PMC11784026, “Phase 1 study of the safety, tolerability, and pharmacokinetics of a synthetic macrocyclic peptide antibiotic (BRII-693) in healthy adult participants” (Antimicrobial Agents and Chemotherapy, 2024)
